{"source": "patent US6930127B2", "about": "“Veterinary treatment of ophthalmic disease in animals using topical tacrolimus” (Eaton Veterinary Laboratories, Inc., priority 2002, dated 2005)", "key": {"[1]": {"conditions": "cited from earlier work"}, "immune response": {"system": "immune response", "conditions": "'thought to be'; cited from earlier work"}, "[2]": {"system": "canines with keratoconjunctivitis sicca", "assay": "Clinical trial of topical tacrolimus in treatment of canine keratoconjunctivitis sicca", "assay_type": "in vivo, dogs", "conditions": "twice daily, 30 days", "protocol": "A population of canines with keratoconjunctivitis sicca was subject to a method of treatment with a topical tacrolimus solution in order to evaluate the therapeutic effectiveness of the drug. Materials • 0.02% tacrolimus was prepared in a physiologically acceptable ointment base. • 0.02% tacrolimus was prepared in a physiologically acceptable oil base. • Schirmer Tear Test strips were employed to measure tearing. • Petrolatum eye ointment was used for patient comfort. • Commercial eyewash was used as a cleaning solution. The test group consisted of 26 dogs of various breeds from different geographic areas. […] 24 dogs were administered a dose of tacrolimus in either ointment or oil base twice daily in both eyes for 30 days. 2 dogs received the same treatment in only one eye. Petrolatum ointment was administered to some dogs as necessary for comfort. Debris was flushed from the eyes as necessary using a commercial eyewash preparation. The eyes were examined and observations recorded at days 7-14 and again at 21-30 days during treatment."}}}
{"molecule": "C=CC[C@@H]1/C=C(\\C)C[C@H](C)C[C@H](OC)[C@H]2O[C@@](O)(C(=O)C(=O)N3CCCC[C@H]3C(=O)O[C@H](/C(C)=C/[C@@H]3CC[C@@H](O)[C@H](OC)C3)[C@H](C)[C@@H](O)CC1=O)[C@H](C)C[C@@H]2OC", "note": "[Tacrolimus]", "values": [{"measurement": "solubility in alcohols and some oils", "setting": "[1]; alcohols and some oils", "result": "soluble"}, {"measurement": "solubility in water", "setting": "[1]; water", "result": "practically insoluble"}, {"measurement": "potency relative to cyclosporine on a per gram basis", "setting": "immune response", "result": "up to 100 times"}, {"measurement": "signs of ocular irritation", "setting": "[2]; 0.02% tacrolimus in ointment or oil base, topical", "result": "None of the subjects exhibited signs of ocular irritation"}, {"measurement": "treated eyes exhibiting improvement", "setting": "[2]; 0.02% tacrolimus in ointment or oil base, topical, 26 dogs with KCS", "result": 96, "unit": "%"}, {"measurement": "treated eyes exhibiting improved Schirmer Tear Test (STT) values", "setting": "[2]; 0.02% tacrolimus in ointment or oil base, topical, 60 second STT", "result": 92, "unit": "%"}, {"measurement": "additional effect: corneal scarring and pigmentation", "setting": "[2]; 0.02% tacrolimus topical", "result": "reduction in corneal scarring and pigmentation"}, {"measurement": "additional effect: inflammation of the conjunctiva", "setting": "[2]; 0.02% tacrolimus topical", "result": "reduction in inflammation of the conjunctiva"}, {"measurement": "effectiveness in dogs, including those where cyclosporine had previously failed", "setting": "[2]; 0.02% tacrolimus topical", "result": "effective in some dogs for whom cyclosporine treatment had previously failed"}]}
